{"source": "patent US20070041915A1", "about": "“Use of a biguanide derivative for protecting skin against uvb radiation” (PHARMAMENS, priority 2003, published 2007)", "key": {"Langerhans cells": {"system": "Langerhans cells", "assay": "Protective activity against UVB-induced immunosuppressive photo effect (depletion of Langerhans cells) on survival-maintained human skin explants, anti-CD1a labelling", "type": "cell-based", "conditions": "histology and immunolabelling of Langerhans cells 24 hours after irradiation; preventive application", "protocol": "The purpose of this study is to evidence the protective activity of metformin against an immunosuppressive photo effect (depletion of Langerhans cells) induced by UVB radiation on a survival-maintained human skin model.\nThe immunosuppressive photo activity induced by UVB is, assessed by counting the number of Langerhans cells in a separated epidermis and in tissue sections after anti-CDla labelling.\n27 skin explants were prepared and maintained in-survival in a culture medium. They were divided among 9 batches of three explants: three reference batches, three excipient batches and three ointment batches containing 1% metformin (formulation example 3).\n3 batches (reference, excipient and ointment) were exposed to UVB radiation of 4 J/cm^2, three batches (reference, excipient and ointment) to UVB radiation of 6 J/cm^2 and the three last batches were placed in darkness during the time of irradiation.\nDaily application of the ointment was 4 mg per explant for 3 days before irradiation.\nAnalysis of the reference and treated explants was performed 24 h after irradiation.\nAnti-CDla immunolabelling of Langerhans cells was made in the separated epidermis and in tissue sections."}, "[1]": {"conditions": "cited from earlier work"}}, "data": [{"compound": "CN(C)C(=N)N=C(N)N", "note": "[metformin]", "values": [{"measurement": "protective activity against UVB", "setting": "Langerhans cells", "value": "protective action"}, {"measurement": "toxicity", "setting": "[1]; at hypoglycaemic doses", "value": "absence of toxicity"}, {"measurement": "chronic toxicity", "setting": "[1]; in vivo", "value": "practically zero"}, {"measurement": "tolerance", "setting": "[1]; in vivo", "value": "good"}]}]}
